# Tests used:
# [1] = tested on: Staphylococcus aureus; experiment: Bacterial inactivation in leukoreduced PRBC with Erythrosol (Example 5), S. aureus; format: cell-based; settings: red cells, 0.2 mM compound, 2 mM glutathione, two hours at RT
# [2] = tested on: Respiratory Synctial Virus (RSV); experiment: Viral inactivation in leukoreduced PRBC with Erythrosol (Example 5), RSV; format: cell-based; settings: red cells, 0.2 mM inactivation compound, 2 mM glutathione, two hours at RT
# [3] = tested on: Cell-Associated HIV; experiment: Viral inactivation in leukoreduced PRBC with Erythrosol (Example 5), cell-associated HIV; format: cell-based, Human Immunodeficiency Virus; settings: red cells, 0.2 mM inactivation compound, 3 mM glutathione, two hours at RT
# [4] = tested on: Cell-Free HIV; experiment: Viral inactivation in leukoreduced PRBC with Erythrosol (Example 5), cell-free HIV; format: cell-based, Human Immunodeficiency Virus; settings: red cells, 0.2 mM inactivation compound, 3 mM glutathione, two hours at RT
# [5] = tested on: Escherichia coli K12; experiment: Bacterial inactivation in leukoreduced PRBC with Erythrosol (Example 5), E. coli K12; format: cell-based; settings: red cells, 0.2 mM compound, 2 mM glutathione, two hours at RT
# [6] = tested on: Deinococcus radiodurans; experiment: Bacterial inactivation in leukoreduced PRBC with Erythrosol (Example 5), D. radiodurans; format: cell-based; settings: red cells, 0.2 mM compound, 2 mM glutathione, two hours at RT
# [7] = tested on: Herpes Simplex Virus (HSV); experiment: Viral inactivation in leukoreduced PRBC with Erythrosol (Example 5), HSV; format: cell-based; settings: red cells, 0.003 mM inactivation compound, 3 mM glutathione, two hours at RT
# [8] = tested on: Listeria monocytogenes; experiment: Bacterial inactivation in leukoreduced PRBC with Erythrosol (Example 5), L. monocytogenes; format: cell-based; settings: red cells, 0.2 mM compound, 2 mM glutathione, two hours at RT
# [9] = tested on: Bovine Viral Diarrhea Virus (BVDV); experiment: Viral inactivation in leukoreduced PRBC with Erythrosol (Example 5), BVDV; format: cell-based; settings: red cells, 0.1 mM inactivation compound, 1 mM glutathione, two hours at RT
# [10] = tested on: Duck Hepatitis B Virus (DHBV); experiment: Viral inactivation in leukoreduced PRBC with Erythrosol (Example 5), DHBV; format: cell-based; settings: red cells, 0.1 mM inactivation compound, 3 mM glutathione, two hours at RT
# [11] = tested on: Serratia liquifaciens; experiment: Bacterial inactivation in leukoreduced PRBC with Erythrosol (Example 5), S. liquifaciens; format: cell-based; settings: red cells, 0.2 mM compound, 2 mM glutathione, two hours at RT
# [12] = tested on: Vesicular Stomatitis Virus type Indiana (VSIV); format: cell-based
# [13] = tested on: Salmonella choleraesuis; experiment: Bacterial inactivation in leukoreduced PRBC with Erythrosol (Example 5), S. choleraesuis; format: cell-based; settings: red cells, 0.2 mM compound, 2 mM glutathione, two hours at RT
# [14] = tested on: Yersinia enterocolitica; experiment: Bacterial inactivation in leukoreduced PRBC with Erythrosol (Example 5), Y. enterocolitica; format: cell-based; settings: red cells, 0.2 mM compound, 2 mM glutathione, two hours at RT
# [15] = tested on: Staphylococcus epidermidis; experiment: Bacterial inactivation in leukoreduced PRBC with Erythrosol (Example 5), S. epidermidis; format: cell-based; settings: red cells, 0.2 mM compound, 2 mM glutathione, two hours at RT
# [16] = tested on: Bacilus subtilis; experiment: Bacterial inactivation in leukoreduced PRBC with Erythrosol (Example 5), B. subtilis; format: cell-based; settings: red cells, 0.2 mM compound, 2 mM glutathione, two hours at RT
# [17] = tested on: Pseudomonas aeruginosa; experiment: Bacterial inactivation in leukoreduced PRBC with Erythrosol (Example 5), P. aeruginosa; format: cell-based; settings: red cells, 0.2 mM compound, 2 mM glutathione, two hours at RT
# [18] = tested on: Serratia marcescens; experiment: Bacterial inactivation in leukoreduced PRBC with Erythrosol (Example 5), S. marcescens; format: cell-based; settings: red cells, 0.2 mM compound, 2 mM glutathione, two hours at RT
# [19] = tested on: Bluetongue type 11 Virus; experiment: Viral inactivation in leukoreduced PRBC with Erythrosol (Example 5), Bluetongue type 11; format: cell-based; settings: red cells, 0.2 mM inactivation compound, 2 mM glutathione, two hours at RT
compound,measurement,setting,value
"O=C(CCNc1c2ccccc2nc2ccccc12)OCCN(CCCl)CCCl [β-alanine, N-(acridin-9-yl), 2-[bis(2-chloroethyl)amino]ethyl ester]",Log inactivation Staphylococcus aureus,[1],>5.1 log
same,Log inactivation RSV,[2],5.6 log
same,Log inactivation Cell-Associated HIV,[3],>6.2 log
same,Log inactivation Cell-Free HIV,[4],>6.5 log
same,Log inactivation Eseherichia coli K12,[5],7.4 log
same,Log inactivation Deinococcus radiodurans,[6],>6.0 log
same,Log inactivation HSV,[7],>6.0 log
same,Log inactivation Listeria monocytogenes,[8],>7.1 log
same,Log inactivation BVDV,[9],>7.3 log
same,Log inactivation DHBV,[10],>6.3 log
same,Log inactivation Serratia liquifaciens,[11],3.8 log
same,Log inactivation VSIV,[12],5.7 log
same,Log inactivation Salmonella choleraesuis,[13],4.8 log
same,Log inactivation Yersinia enterocolitica,[14],7.4 log
same,Log inactivation Staphylococcus epidermidis,[15],>6.9 log
same,Log inactivation Bacilus subtilis,[16],>6.3 log
same,Log inactivation Pseudomonas aeruginosa,[17],4.5 log
same,Log inactivation Serratia marcescens,[18],4.1 log
same,Log inactivation Bluetongue type 11,[19],6.0 log
